In publication PMC3229523, “Identification of Lactoferricin B Intracellular Targets Using an Escherichia coli Proteome Chip” (PLoS ONE, 2011):
Ends that are not written are not given here. * marks the point of attachment. Biotin = O=C1N[C@H]2[C@H](CS[C@H]2CCCCC(=O)*)N1

What was measured:
NrdB = test: E. coli proteome chip assay, NrdB; assay type: binding, E. coli K-12; conditions: NrdB not in the top 153 proteins; 10 nM biotinylated LfcinB
Procedure: To fabricate the proteome chips, E. coli K-12 proteins were expressed and purified in a high-throughput fashion. The procedure was modified from Chen et al.. Briefly, E. coli protein expression clones fused with a 6×-His tag, provided by Dr. Mori, were first incubated with glass beads (Biospec Products Inc.) in 2× LB medium containing 30 µg/ml chloramphenicol in 96 DeepWell™ plates (Nunc) at 37°C overnight. The overnight cultures were then diluted with 2× LB that contains 30 µg/ml chloramphenicol to the OD595 value of 0.1. When the cells grew to an OD595 value of 0.7–0.9, 500 µM of isopropyl β-D-thiogalactoside (IPTG) was added to induce protein expression at 37°C for ∼3.5 h. The cultures were then harvested by centrifugation at 3220 g for 5 min at 4°C, and the pellets were stored at −80°C before purification. […]
For image processing of chip assay results, Genepix Pro 6.0 was used to align the protein spot of each individual protein and then all aligned protein image signals were exported as a text file. The text file was analyzed by ProCAT [17], a signal normalization method. The relative ability of LfcinB to bind to each protein was estimated by the ratio of the fluorescence intensity of LfcinB to the fluorescence intensity of an anti-His antibody after the normalization. […]

RecC = test: Fluorescence polarization assay, RecC; assay type: binding, E. coli; conditions: 100 nM DyLight 549-labeled LfcinB; protein 0.025-0.4 µM; data not shown
From the text: (§1) FP assays, investigations of the binding between two molecules in a homogeneous aqueous environment, were used to validate the identified 153 proteins. […] If a fluorophore only binds to a small molecule, such as peptide, the rotation of the complex is fast and the light emits in a different plane of polarization. Therefore, the degree of polarization is low. However, once a fluorophore binds to a large molecule, the bound complex is stimulated with polarized light. The light emits in the same polarized plane, and the complex is maintained in the same plane of polarization, causing an increase in the degree of polarization [22]–[24]. The amount of molecules binding to a fluorophore influences the degree of polarization. In this study, LfcinB was labeled with DyLight™ 549 as a reference value. Once the protein bound to LfcinB, like a fluorophore binds to a large molecule, a high degree of polarization is expected.
(§2) Before the assays, LfcinB was labeled with DyLight™ 549 and tested proteins were quantified with a Pierce® bicinchoninic acid (BCA™) protein assay (Thermo). To label the LfcinB, DyLight™ 549-NHS ester and LfcinB (68∶1, mole/mole) were mixed in PBS at room temperature for 1 h, a D-Salt™ polyacrylamide desalting column (Thermo) was used to remove excess dye and the labeling efficiency of the eluted solution was calculated. […]

YhaN = test: Fluorescence polarization assay, YhaN; assay type: binding, E. coli; conditions: 100 nM DyLight 549-labeled LfcinB; protein 0.025-0.4 µM; data not shown
From the text: as §1, §2

GldA = test: Fluorescence polarization assay, GldA; assay type: binding, E. coli; conditions: 100 nM DyLight 549-labeled LfcinB; protein 0.025-0.4 µM; data not shown
From the text: as §1, §2

Adi = test: Fluorescence polarization assay, Adi; assay type: binding, E. coli; conditions: 100 nM DyLight 549-labeled LfcinB; protein 0.025-0.4 µM; data not shown
From the text: as §1, §2

[1] = tested on: E. coli K-12 BW25113 (isogenic parent) strain; test: Knockout assay, isogenic parent strain; assay type: cell-based; conditions: 32 µM LfcinB, LB medium, 37°C, approx. 10^7 CFU/ml
Procedure: (§3) The E. coli K-12 BW25113 (isogenic parent) strain and the 16 knockout strains were obtained from the E. coli Genetic Resources at the Coli Genetic Stock Center (CGSC) at Yale University. The strains were inoculated into LB medium, and incubated at 37°C with shaking. After 16 h of incubation, the cultures were diluted to approximately 10^7 CFU/ml with LB medium. Thirty-two µM of LfcinB were then added to the cultures in a 96-well plate. PBS was used as a negative control. Cultures with LfcinB or PBS were then incubated at 37°C with shaking in a microplate reader and the growth was observed by measuring the OD595 value every 20 min for 7 h 20 min.

nrdF knockout mutant = test: Knockout assay, nrdF knockout mutant; assay type: cell-based, E. coli K-12; conditions: 32 µM LfcinB, LB medium, 37°C
Procedure: as §3

**Q.** Which results are given for “Lactoferricin B (Biotin-FKCRRWQWRMKKLGAPSITCVRRAF; ends and bridges not checked) [LfcinB]”?
**A.** binding affinity in chip assays (NrdB): strong binding affinity with LfcinB; binding to RecC (RecC): confirmed to bind to LfcinB; binding to YhaN (YhaN): confirmed to bind to LfcinB; binding to GldA (GldA): confirmed to bind to LfcinB; binding to Adi (Adi): confirmed to bind to LfcinB; growth with LfcinB [1]: inhibited the growth of the isogenic parent strain; growth curve with vs without LfcinB (nrdF knockout mutant): significant inhibited
